The test concerns the target Glucagon Receptor (Homo sapiens, UniProt P47871). Put plainly: Functional assay-cAMP synthesis (luciferase reporter, HEK293), glucagon receptor. The conditions noted are these: for % activity*: glucagon receptor. In general terms: A reporter such as luciferase makes a cellular process visible.
Where [1] appears, read: EC50 at the glucagon receptor, Example 20.
Where [2] appears, read: EC50 at Glucagon Receptor (nM), Table 7.

Square brackets hold non-standard residues; d marks the D form. Peptide text beside a SMILES is read from it. Aib = CC(C)(N)C(=O)O

Sequence of Glucagon Receptor (P47871 26-477): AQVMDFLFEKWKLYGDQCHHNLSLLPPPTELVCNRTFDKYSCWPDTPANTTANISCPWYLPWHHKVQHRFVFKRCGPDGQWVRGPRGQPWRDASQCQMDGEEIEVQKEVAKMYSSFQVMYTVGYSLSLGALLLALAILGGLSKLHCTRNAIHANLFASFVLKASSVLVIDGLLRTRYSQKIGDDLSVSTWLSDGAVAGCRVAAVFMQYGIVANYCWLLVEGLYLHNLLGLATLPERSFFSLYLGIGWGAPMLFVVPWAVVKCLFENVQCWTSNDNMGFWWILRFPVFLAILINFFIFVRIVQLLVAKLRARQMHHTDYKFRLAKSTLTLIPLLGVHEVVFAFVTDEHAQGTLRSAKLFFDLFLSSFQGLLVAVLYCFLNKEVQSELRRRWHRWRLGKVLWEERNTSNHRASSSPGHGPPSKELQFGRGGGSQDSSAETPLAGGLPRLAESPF
Description: The luminescent light output indicates activation of the luciferase reporter gene, which in turn is a measure of the activation of the receptor.

In the case of `CSCC[C@H](NC(=O)[C@H](CC(C)C)NC(=O)[C@H](Cc1c[nH]c2ccccc12)NC(=O)[C@H](CCC(N)=O)NC(=O)[C@@H](NC(=O)[C@H](Cc1ccccc1)NC(=O)[C@H](CC(=O)O)NC(=O)[C@H](CCC(N)=O)NC(=O)[C@H](C)NC(=O)[C@H](CCCNC(=N)N)NC(=O)[C@H](CCCNC(=N)N)NC(=O)C(C)(C)NC(=O)[C@H](CC(=O)O)NC(=O)[C@H](CC(C)C)NC(=O)[C@H](Cc1ccc(O)cc1)NC(=O)[C@H](CCCCN)NC(=O)[C@H](CO)NC(=O)[C@H](Cc1ccc(O)cc1)NC(=O)[C@H](CC(=O)O)NC(=O)[C@H](CO)NC(=O)[C@@H](NC(=O)[C@H](Cc1ccccc1)NC(=O)[C@@H](NC(=O)CNC(=O)[C@H](CCC(N)=O)NC(=O)[C@H](CO)NC(=O)[C@@H](N)Cc1c[nH]cn1)[C@@H](C)O)[C@@H](C)O)C(C)C)C(=O)N[C@@H](CC(=O)O)C(=O)N[C@@H](CCC(=O)O)C(=O)O` [AIB16/D28/E29 Glucagon] (H-HSQGTFTSDYSKYLD[Aib]RRAQDFVQWLMDE-OH; N-terminus and C-terminus assumed), the EC50 (usually the concentration that produces a half-maximal response) under setting [1] came out at 0.08 nM. That is a picomolar value.

`CSCC[C@H](NC(=O)[C@H](CC(C)C)NC(=O)[C@H](Cc1c[nH]c2ccccc12)NC(=O)[C@H](CCC(N)=O)NC(=O)[C@@H](NC(=O)[C@H](Cc1ccccc1)NC(=O)[C@H](CC(=O)O)NC(=O)[C@H](CCC(N)=O)NC(=O)[C@H](C)NC(=O)[C@H](CCCNC(=N)N)NC(=O)[C@H](CCCNC(=N)N)NC(=O)[C@H](CO)NC(=O)[C@H](CC(=O)O)NC(=O)[C@H](CC(C)C)NC(=O)[C@H](Cc1ccc(O)cc1)NC(=O)[C@H](CCCCN)NC(=O)[C@H](CO)NC(=O)[C@H](Cc1ccc(O)cc1)NC(=O)[C@H](CC(=O)O)NC(=O)[C@H](CO)NC(=O)[C@@H](NC(=O)[C@H](Cc1ccccc1)NC(=O)[C@@H](NC(=O)CNC(=O)[C@H](CCC(N)=O)NC(=O)[C@H](CO)NC(=O)[C@@H](N)Cc1c[nH]cn1)[C@@H](C)O)[C@@H](C)O)C(C)C)C(=O)N[C@@H](CC(=O)O)C(=O)N[C@@H](CCC(=O)O)C(=O)O` [D28, E29] gave an EC50 under setting [1] of 0.06 nM.

With `CCCCCCCCCCCCCCCC(=O)NCCCCCC(=O)NCCCC[C@H](NC(=O)[C@H](CC(=O)O)NC(=O)[C@H](CO)NC(=O)[C@@H](NC(=O)[C@H](Cc1ccccc1)NC(=O)[C@@H](NC(=O)CNC(=O)[C@H](CCC(N)=O)NC(=O)C(C)(C)NC(=O)[C@@H](N)Cc1c[nH]cn1)[C@@H](C)O)[C@@H](C)O)C(=O)N[C@@H](CO)C(=O)N[C@@H](CCCCN)C(=O)N[C@@H](Cc1ccc(O)cc1)C(=O)N[C@@H](CC(C)C)C(=O)N[C@@H](CC(=O)O)C(=O)NC(C)(C)C(=O)N[C@@H](CCCNC(=N)N)C(=O)N[C@@H](CCCNC(=N)N)C(=O)N[C@@H](C)C(=O)N[C@@H](CCC(N)=O)C(=O)N[C@@H](CC(=O)O)C(=O)N[C@@H](Cc1ccccc1)C(=O)N[C@H](C(=O)N[C@@H](CCC(N)=O)C(=O)N[C@@H](Cc1c[nH]c2ccccc12)C(=O)N[C@@H](CC(C)C)C(=O)N[C@@H](CCSC)C(=O)N[C@@H](CC(N)=O)C(=O)N[C@H](C(N)=O)[C@@H](C)O)C(C)C` [Peptide 85, HXQGTFTSDKSKYLDXRRAQDFVQWLMNT-NH2], the EC50 (EC50 at Glucagon Receptor (nM), Table 10) came to 0.01 nM.

As to `CCCC[C@H](NC(=O)[C@H](CC(C)C)NC(=O)[C@H](Cc1c[nH]c2ccccc12)NC(=O)[C@H](C)NC(=O)[C@@H](NC(=O)[C@H](Cc1ccccc1)NC(=O)[C@H](CCC(=O)O)NC(=O)[C@H](C)NC(=O)[C@H](C)NC(=O)[C@H](CCCNC(=N)N)NC(=O)[C@H](CCCNC(=N)N)NC(=O)[C@@H](NC(=O)[C@H](CC(=O)O)NC(=O)[C@H](CC(C)C)NC(=O)[C@H](Cc1ccc(O)cc1)NC(=O)[C@H](CCCCN)NC(=O)[C@H](CO)NC(=O)[C@H](Cc1ccc(O)cc1)NC(=O)[C@H](CC(=O)O)NC(=O)[C@H](CO)NC(=O)[C@@H](NC(=O)[C@H](Cc1ccccc1)NC(=O)[C@@H](NC(=O)CNC(=O)[C@H](CCC(N)=O)NC(=O)[C@H](CO)NC(=O)[C@@H](N)Cc1c[nH]cn1)[C@@H](C)O)[C@@H](C)O)[C@@H](C)O)C(C)C)C(=O)N[C@@H](CC(=O)O)C(=O)N[C@@H](CCC(=O)O)C(=O)O` [SEQ ID NO: 61], where the note is “FIG. 11”, the “glucagon activity (cAMP induction)” value is listed as “retains substantial glucagon activity”. The “% activity*” value (Table 7) was found to be 25%.

In turn, `CCCC[C@H](NC(=O)[C@H](CC(C)C)NC(=O)[C@H](Cc1c[nH]c2ccccc12)NC(=O)[C@H](C)NC(=O)[C@@H](NC(=O)[C@H](Cc1ccccc1)NC(=O)[C@H](CCC(=O)O)NC(=O)[C@H](C)NC(=O)[C@H](C)NC(=O)[C@H](CCCNC(=N)N)NC(=O)[C@H](CCCNC(=N)N)NC(=O)[C@@H](NC(=O)[C@H](CC(=O)O)NC(=O)[C@H](CC(C)C)NC(=O)[C@H](Cc1ccc(O)cc1)NC(=O)[C@H](CCCCN)NC(=O)[C@H](CO)NC(=O)[C@H](Cc1ccc(O)cc1)NC(=O)[C@H](CC(=O)O)NC(=O)[C@H](CO)NC(=O)[C@@H](NC(=O)[C@H](Cc1ccccc1)NC(=O)[C@@H](NC(=O)CNC(=O)[C@H](CSCNC(C)=O)NC(=O)[C@H](CO)NC(=O)[C@@H](N)Cc1c[nH]cn1)[C@@H](C)O)[C@@H](C)O)[C@@H](C)O)C(C)C)C(=O)N[C@@H](CC(=O)O)C(=O)N[C@@H](CCC(=O)O)C(=O)O` [SEQ ID NO: 62] displayed an EC50 under setting [2] of 0.18 nM. Besides, for the setting “Table 7”, the “% activity*” value is 33%.

With `CCCC[C@H](NC(=O)[C@H](CC(C)C)NC(=O)[C@H](Cc1c[nH]c2ccccc12)NC(=O)[C@H](C)NC(=O)[C@@H](NC(=O)[C@H](Cc1ccccc1)NC(=O)[C@H](CCC(=O)O)NC(=O)[C@H](C)NC(=O)[C@H](C)NC(=O)[C@H](CCCNC(=N)N)NC(=O)[C@H](CCCNC(=N)N)NC(=O)[C@@H](NC(=O)[C@H](CC(=O)O)NC(=O)[C@H](CC(C)C)NC(=O)[C@H](Cc1ccc(O)cc1)NC(=O)[C@H](CCCCN)NC(=O)[C@H](CO)NC(=O)[C@H](Cc1ccc(O)cc1)NC(=O)[C@H](CC(=O)O)NC(=O)[C@H](CO)NC(=O)[C@@H](NC(=O)[C@H](Cc1ccccc1)NC(=O)[C@@H](NC(=O)CNC(=O)[C@H](CCNC(C)=O)NC(=O)[C@H](CO)NC(=O)[C@@H](N)Cc1c[nH]cn1)[C@@H](C)O)[C@@H](C)O)[C@@H](C)O)C(C)C)C(=O)N[C@@H](CC(=O)O)C(=O)N[C@@H](CCC(=O)O)C(=O)O` [SEQ ID NO: 63], the “% activity*” value (Table 7) was 19%.

Under setting [2], `CCCC[C@H](NC(=O)[C@H](CC(C)C)NC(=O)[C@H](Cc1c[nH]c2ccccc12)NC(=O)[C@H](C)NC(=O)[C@@H](NC(=O)[C@H](Cc1ccccc1)NC(=O)[C@H](CCC(=O)O)NC(=O)[C@H](C)NC(=O)[C@H](C)NC(=O)[C@H](CCCNC(=N)N)NC(=O)[C@H](CCCNC(=N)N)NC(=O)[C@@H](NC(=O)[C@H](CC(=O)O)NC(=O)[C@H](CC(C)C)NC(=O)[C@H](Cc1ccc(O)cc1)NC(=O)[C@H](CCCCN)NC(=O)[C@H](CO)NC(=O)[C@H](Cc1ccc(O)cc1)NC(=O)[C@H](CC(=O)O)NC(=O)[C@H](CO)NC(=O)[C@@H](NC(=O)[C@H](Cc1ccccc1)NC(=O)[C@@H](NC(=O)CNC(=O)[C@H](CNC(N)=O)NC(=O)[C@H](CO)NC(=O)[C@@H](N)Cc1c[nH]cn1)[C@@H](C)O)[C@@H](C)O)[C@@H](C)O)C(C)C)C(=O)N[C@@H](CC(=O)O)C(=O)N[C@@H](CCC(=O)O)C(=O)O` [SEQ ID NO: 64] gave an EC50 of 0.48 nM. Where the note is “Table 7”, the “% activity*” value is given as 13%.
